Test results taken from patent US9034596B1, “Method for fluorescent staining of cellular and intracellular membranes” (KUWAIT UNIVERSITY, priority 2014, dated 2015).

Tests used:
[1] = storage stability of sterilized probe; details: refrigerated in the dark
[2] = test system: LS174T cells; assay: fluorescent staining of cellular and intracellular membranes, confocal microscopy; assay type: cell-based
Method: Monolayer cultures were grown in RPMI 1640 medium (Gibco) supplemented with 10% fetal bovine serum (FBS) (Gibco), 1% L-glutamine (Gibco), 1% penicillin/streptomycin (Gibco) as an antibacterial agent and 0.1% amphotericin (Sigma) as an antifungal agent. The cultures were maintained at 37° C. in a CO2 incubator with humidified atmosphere, 5% CO2 and 95% air. Confluent cultures (80-90%) were used for experiments. The cells were then detached by trypsinization and incubation at 37° C. for 2-3 minutes. Fresh medium (10× to trypsin's volume) was added to inhibit trypsin action. The cell suspension was centrifuged at 500 g for three minutes. The supernatant was discarded and the pellet obtained was resuspended in fresh medium. Cells were counted and seeded onto sterile glass cover slips at 5×10^4 cells per slip and incubated overnight to adhere. ZnTnHex-4-PyPCl4 was added and the cells were incubated with the compound in the dark. The cells were then fixed with ice cold absolute ethanol added to a final concentration of 60%, and the plate containing the slips was kept on ice for 10 minutes. The cells were washed with PBS twice and the slips were transferred onto microscopic slides. Vectashield mounting medium from Vector Laboratories was used. The slides were examined using a Zeiss LSM 510 META confocal fluorescence microscope fitted with standard FITC, Rhodamine and DAPI filter sets.
LS174T cells were counted and seeded onto sterile glass cover slips at 5×10^4 cells per slip and incubated over-night to adhere. The dye was added to a final concentration of 0.5-2.5 μM and the cells were incubated with ZnTnHex-4-PyPCl4 in the dark for 15-30 minutes. The cells were then fixed with ice cold absolute ethanol added to a final concentration of 60%, and the plate containing the slips was kept on ice for 10 minutes. The cells were washed with PBS twice and the slips were transferred onto microscopic slides. […] The slides were examined using a Zeiss LSM 510 META confocal fluorescence microscope fitted with standard FITC, Rhodamine and DAPI filter sets.

[3] = test system: cells; assay: harm to cells incubated with the fluorescent probe; details: 20 μM, shielded from light
[4] = solubility

In the case of `CCCCCC[n+]1ccc(C2=C3C=CC4=[N+]3[Zn]35[n]6c2ccc6C(c2cc[n+](CCCCCC)cc2)=C2C=CC(=[N+]23)C(c2cc[n+](CCCCCC)cc2)=c2ccc([n]25)=C4c2cc[n+](CCCCCC)cc2)cc1` [ZnTnHex-4-PyPCl4, Zn(II) meso-tetrakis(N-n-hexylpyridinium-4-yl)porphyrin tetrachloride], the storage stability [1] is reported as “kept for months”, the subcellular localization ([2]; LSI74T cells, 20 μM, 24 hours pre-incubation in the dark, FIG. 2) is reported as “mitochondria, lysosomes, the ER and the plasma membrane” and the “time to stain cellular and intracellular membranes” value ([2]; concentrations as low as about 0.5-2.5 μM) is reported as at most 15 min. For the same compound, the “concentration needed for staining membranes” value ([2]; living mammalian cells) was 0.5 to 1 µM, the harm to cells [3] was “without harming cells” and the solubility in water [4] was “water soluble”.
